The results in this text go back to ChEMBL document CHEMBL1137835, “2-(Anilino)imidazolines and 2-(benzyl)imidazoline derivatives as h5-HT1D serotonin receptor ligands” (Bioorg Med Chem Lett, 2004).

One may read the bioavailability as the share of a dose that reaches the circulation, judged against a reference dose that is usually intravenous. The low end stands for poor availability, the high end for good availability. A word on the half-life: it is how long it takes for the measured level to halve. In general, clearance refers to the rate of elimination divided by the concentration. A word on the Vd: it is the apparent volume that relates the amount in the body to the concentration in plasma or blood. Read a low Vd as little distribution into tissue. A word on the Ki: it is the equilibrium dissociation constant of an inhibitor or competing ligand from its target. A low value points to higher affinity. A word on the EC50: it is the concentration that produces a half-maximal response. Read a high EC50 as weaker potency. A word on the inhibition: it is how much of the control response was suppressed.

The nature of series [1]: Oral bioavailability in rat (dose 5 mg/kg). The format is ADME, organism-based. As to conditions: in vivo.
For series [2], the species on record is Cavia porcellus. Description: Compound was tested for serotonergic activity on […] induced by electrical stimulation in guinea-pigs.
A short description of series [3]: Plasma half-life in rat at a dose of 5 mg/kg. It is filed as ADME, organism-based. Also on record: dose 5 mg/kg.
The nature of series [4]: Total plasma clearance in rat at a dose of 5 mg/kg. The conditions noted are these: read-out: Total clearance. It is filed as ADME, organism-based. Also on record: dose 5 mg/kg.
The nature of series [5]: Volume of distribution of compound in rat body tissue at a dose of 5 mg/kg. It is filed as ADME, organism-based. On the set-up: dose 5 mg/kg. The conditions noted are these: in vivo.
The target in series [6] is Serotonin 1 receptors; 5-HT1B & 5-HT1D (Homo sapiens) (UniProt P28222+P28221). Nature of the series: Ratio of 5-hydroxytryptamine 1B receptor to that of 5-hydroxytryptamine 1D receptor was determined. It is filed as protein assay.
The target of series [7] is T1, Alpha-1A adrenergic receptor (Homo sapiens, UniProt P35348).
T1 sequence (P35348 whole entry): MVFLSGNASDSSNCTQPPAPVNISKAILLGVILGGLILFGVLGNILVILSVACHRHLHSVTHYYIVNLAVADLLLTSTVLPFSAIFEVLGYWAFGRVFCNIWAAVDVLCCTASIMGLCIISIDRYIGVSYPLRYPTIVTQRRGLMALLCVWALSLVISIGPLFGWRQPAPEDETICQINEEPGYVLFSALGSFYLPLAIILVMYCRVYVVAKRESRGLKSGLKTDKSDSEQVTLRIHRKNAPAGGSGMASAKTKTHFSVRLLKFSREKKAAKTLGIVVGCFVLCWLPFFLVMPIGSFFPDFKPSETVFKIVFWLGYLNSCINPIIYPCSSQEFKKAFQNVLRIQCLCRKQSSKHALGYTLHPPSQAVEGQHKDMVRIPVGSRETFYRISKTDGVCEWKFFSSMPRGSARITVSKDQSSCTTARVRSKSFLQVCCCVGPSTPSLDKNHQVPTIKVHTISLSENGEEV
Description: Binding affinity towards human Alpha-1 adrenergic receptor.

Series [8] concerns the target T2, 5-hydroxytryptamine receptor 1D (Homo sapiens, UniProt P28221). Description: Binding affinity towards human 5-hydroxytryptamine 1D receptor.
In series [9] the test system is Cavia porcellus. Nature of the series: Compound was tested for serotonergic activity on […] induced by electrical stimulation in guinea-pigs (3-7 nM/kg).
The target in series [10] is T3, 5-hydroxytryptamine receptor 1B (Homo sapiens, UniProt P28222). Description: Binding affinity towards human 5-hydroxytryptamine 1B receptor.
The species named for another series is Oryctolagus cuniculus. Description: Agonistic activity tested in isolated rabbit saphenous vein. It is filed as functional.
Series [11] concerns the target T4, Muscarinic acetylcholine receptor M4 (Homo sapiens) (UniProt P08173).
T4 sequence (whole entry): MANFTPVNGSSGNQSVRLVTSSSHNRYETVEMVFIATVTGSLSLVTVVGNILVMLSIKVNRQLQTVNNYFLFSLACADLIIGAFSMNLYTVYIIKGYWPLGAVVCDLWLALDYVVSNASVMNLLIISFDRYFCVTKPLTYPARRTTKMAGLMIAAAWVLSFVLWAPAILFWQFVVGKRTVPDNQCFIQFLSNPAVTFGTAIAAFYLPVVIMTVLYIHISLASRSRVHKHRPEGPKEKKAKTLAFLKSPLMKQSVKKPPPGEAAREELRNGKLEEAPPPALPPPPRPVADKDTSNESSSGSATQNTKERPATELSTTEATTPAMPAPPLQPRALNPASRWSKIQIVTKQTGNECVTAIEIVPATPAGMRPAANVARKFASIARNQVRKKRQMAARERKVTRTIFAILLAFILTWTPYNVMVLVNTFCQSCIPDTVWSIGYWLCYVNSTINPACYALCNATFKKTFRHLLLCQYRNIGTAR
Description: Inhibitory activity against human Muscarinic acetylcholine receptor M4 at 1000 nM.

The target of series [12] is T3, 5-hydroxytryptamine receptor 1B. The conditions noted are these: 1000 nM.
Description: Percent displacement of radioligand from human 5-hydroxytryptamine 1B receptor at 1000 nM
The target in series [13] is T2, 5-hydroxytryptamine receptor 1D. As to conditions: 1000 nM.
Description: Percent displacement of radioligand from human 5-hydroxytryptamine 1D receptor at 1000 nM

T2 sequence (P28221 whole entry): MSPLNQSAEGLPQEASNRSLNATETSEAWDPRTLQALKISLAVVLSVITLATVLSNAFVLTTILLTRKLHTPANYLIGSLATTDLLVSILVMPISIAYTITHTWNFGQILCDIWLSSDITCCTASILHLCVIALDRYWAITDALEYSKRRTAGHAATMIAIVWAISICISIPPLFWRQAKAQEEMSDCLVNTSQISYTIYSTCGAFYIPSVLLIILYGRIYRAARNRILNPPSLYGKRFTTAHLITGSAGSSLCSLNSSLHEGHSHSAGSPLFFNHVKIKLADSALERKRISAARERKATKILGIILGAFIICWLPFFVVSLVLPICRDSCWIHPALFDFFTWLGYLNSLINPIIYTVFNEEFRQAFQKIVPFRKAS
T3 sequence (P28222 whole entry): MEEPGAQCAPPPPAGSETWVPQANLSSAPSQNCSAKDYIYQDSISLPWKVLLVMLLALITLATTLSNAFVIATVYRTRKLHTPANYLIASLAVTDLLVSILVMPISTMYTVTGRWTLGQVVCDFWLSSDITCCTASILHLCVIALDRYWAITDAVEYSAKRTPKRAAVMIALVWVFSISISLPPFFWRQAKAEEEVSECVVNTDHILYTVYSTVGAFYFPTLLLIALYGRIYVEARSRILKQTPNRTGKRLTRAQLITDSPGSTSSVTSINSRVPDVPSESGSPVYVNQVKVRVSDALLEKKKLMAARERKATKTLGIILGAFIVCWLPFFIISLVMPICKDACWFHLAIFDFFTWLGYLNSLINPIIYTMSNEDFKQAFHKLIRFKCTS

With `Cc1cc(C(C)(C)C)cc(C)c1CC1=NCCN1C`, the bioavailability in series [1] stood at 42.1%. In the series filed under Cavia porcellus [2], this molecule showed an IC50 of 10 nM/kg. In [3], this molecule had a half-life of 0.95 h. Moreover, the clearance in series [4] was 3.98 L/h/kg. Also, in series [5], the Vd was found to be 3.97 L/kg.
As to `Cc1cc([N+](=O)[O-])cc(C)c1NC1=NCCN1`, in series [6], the Selectivity was 30.
On to `CC(C)(C)c1ccc(C2=NCCN2)cc1`, for which the figures for the Ki in series [7] and in series [8] were 0.091 µM and 0.105 µM, respectively.
In the series on Cavia porcellus [9], `CNS(=O)(=O)Cc1ccc2[nH]cc(CCN(C)C)c2c1` displayed an IC50 of 7 nM/kg.
For the molecule `Cc1cc(Br)cc(C)c1CC1=NCCN1`, the Selectivity in series [6] is 20.
`Cc1cc(C(C)(C)C)cc(C)c1CC1=NCCN1` [XYLOMETAZOLINE]: the Ki was 0.013 µM in series [10] and 0.091 µM in series [7].
Regarding `Clc1cc(I)cc(Cl)c1N=C1NCCN1` [PI-CLONIDINE], the inhibitory constant (Ki) was 1.98 µM in [10] and 0.05 µM in [8]. Moreover, the Selectivity in series [6] came to 40.
Regarding `c1ccc(NC2=NCCN2)cc1`, the Ki in [10] and in series [8] was greater than 30 µM each time.
For `Cc1cc([N+](=O)[O-])cc(C)c1N=C1NCCN1`, the inhibition constant Ki in [10] was 10.2 µM; in series [8], 0.33 µM.
In series [1], `Cc1cc(C(C)(C)C)cc(C)c1CC1=NCCCN1` displayed a bioavailability of 9.9%. In the series filed under Cavia porcellus [2], this molecule gave an IC50 of 5 nM/kg. The molecule also yielded a half-life in series [3] of 1.03 h. For the same molecule, the inhibitory constant (Ki) in series [10] came out at 4.43 µM; in [8], 0.033 µM. Also, in series [4], the clearance was 1.73 L/h/kg. Further, the Vd in [5] came out at 1.24 L/kg.
`Cc1cc(C(C)(C)C)cc(C)c1CC1=NCCN1Cc1ccccc1` displayed a bioavailability in [1] of 9.3%. In the series filed under Cavia porcellus [2], this molecule had an IC50 of 0.4 nM/kg. In addition, in [3], the half-life worked out at 1.64 h. A half-maximal effect in the series filed under Oryctolagus cuniculus (EC50) was put at 0.78 µM. In addition, the clearance in series [4] was found to be 3.46 L/h/kg. The molecule further returned an inhibition in [11] of 68%. The molecule also gave a Vd in series [5] of 7.28 L/kg.
On to `Cc1cc(Br)cc(C)c1N=C1NCCN1`, for which the inhibition constant (Ki) in [10] amounted to 1.43 µM; in series [8], 0.054 µM. For the same molecule, the Selectivity in series [6] was 26.
The matching figures for `Cc1cccc(C)c1N=C1NCCN1`: greater than 30 µM, 2.08 µM and greater than 10.
`Cc1cc(C(C)(C)C)cc(C)c1NC1=NCCN1`: in series [6], the Selectivity was 40.
Still for that read-out and setting: for `Cc1cccc(C)c1CC1=NCCN1` the value was greater than 4.
`Cc1cc(C(C)(C)C)cc(C)c1N=C1NCCN1`: the Ki is 0.012 µM in series [10] and 0.0003 µM in [8].
As for `Clc1cccc(Cl)c1NC1=NCCN1`, the inhibition in [12] and in series [13] was less than 5% in each case.
